Laboratory results published in US20160058739A1, “USE OF PIDOTIMOD TO TREAT INFLAMMATORY BOWEL DISEASE” (POLICHEM SA, priority 2013, published 2016).
Non-standard residues stand in square brackets, D forms with d. Residues, ends and D or L forms follow the SMILES beside them. pGlu = O=C1CC[C@@H](C(=O)O)N1; Thz = O=C(O)[C@@H]1CSCN1

Test system: patients with chronic diarrhoea caused by Crohn's disease or ulcerative colitis
Experiment: open-label pilot trial in patients with chronic diarrhoea caused by Crohn's disease or ulcerative colitis
Assay type: in vivo
Source text: Three patients with chronic diarrhoea caused by Crohn's disease without resection, aged 44 to 63 years (2 female) and three patients with chronic diarrhoea caused by ulcerative colitis, aged 50 to 65 years (1 female) were enrolled in an open-label pilot trial to receive twice a day the composition as per the Example 4 for 12 weeks.

[1] = composition as per Example 4 twice a day for 12 weeks, 3 Crohn's disease and 3 ulcerative colitis patients

For `O=C1CC[C@@H](C(=O)N2CSC[C@H]2C(=O)O)N1` [pidotimod, (4R)-3-(5-oxo-L-prolyl)-1,3-thiazolidine-4-carboxylic acid] ([pGlu]-[Thz]-OH), the “role in inflammatory bowel disease (IBD) in controlling signs and symptoms such as chronic diarrhea” value (administered twice daily for 12 weeks, study conclusion) was “beneficial role”, the frequency of stools (composition as per Example 4 (oral solution, 5.10% pidotimod) twice a day for 12 weeks, 3 Crohn's disease and 3 ulcerative colitis patients) was “significantly decreased” and the bowel transit time [1] was “prolonged”. For the same compound, the stool consistency [1] was “became more solid” and the weight of stools [1] was “significantly decreased”.
